Data reported in patent US6455559B1, “Phenylacetamido-pyrazole derivatives, process for their preparation and their use as antitumor agents” (Pharmacia Italia S.p.A., priority 2001, dated 2002).

Biological target: cdk2/Cyclin A (Homo sapiens, UniProt P24941)
Test: inhibition assay of cdk2/Cyclin A activity (MultiScreen-PH phosphocellulose filter plate, histone H1, P33γ-ATP)
Assay type: biochemical
Settings: tested against cdk2/A; read-out: inhibitory activity, expressed as IC50
Method: The inhibiting activity of putative cdk/cyclin inhibitors and the potency of selected compounds was determined through a method of assay based on the use of the MultiScreen-PH 96 well plate (Millipore), in which phosphocellulose filter paper was placed at each well bottom allowing binding of positive charged substrate after a washing/filtration step.
When a radioactivity labelled phosphate moiety was transferred by the ser/threo kinase to the filter-bound histone, light emitted was measured in a scintillation counter.
The inhibition assay of cdk2/Cyclin A activity was performed according to the following protocol.
Kinase reaction: 1.5 μM histone H1 substrate, 25 μM ATP (0.5 uCi P33γ-ATP), 100 ng Cyclin A/cdk2 complex, 10 μM inhibitor in a final volume of 100 μl buffer (TRIS HCl 10 mM pH 7.5, MgCl2 10 mM, 7.5 mM DTT) were added to each well of a 96 U bottom well plate. After 10 minutes at 37° C. incubation, reaction was stopped by 20 μl EDTA 120 mM.
Capture: 100 μl were transferred from each well MultiScreen plate, to allow substrate binding phosphocellulose filter. […]
Detection: filters were allowed to dry at 37° C., then 100 μl/well scintillant were added and 33P labelled histone H1 was detected by radioactivity counting in the Top-Count instrument.
Results: data were analysed and expressed as % inhibition referred to total activity of enzyme (=100%).

Question: With `C[C@H](C(=O)Nc1cc(C2CC2)[nH]n1)c1ccc(N2CCOC2=O)cc1` [(2S)-N-(5-cyclopropyl-1H-pyrazol-3-yl)-2-[4-(2-oxo-1,3-oxazolidin-3-yl)phenyl]propanamide] as the molecule, how does the IC50 read?
Answer: 8 nM
